Laboratory results reported in patent publication US20260199468A1, “COMPOSITIONS AND METHODS FOR TREATING CANCER USING CELL THERAPIES” (Orca Biosystems, Inc., priority 2023, published 2026).

Legend:
CAR T cells [1] = assay: In vitro CAR T cell cytotoxicity with tacrolimus; format: cell-based; conditions: higher concentrations of tacrolimus, FIGS. 2-5
Procedure: (§1) CAR T cells used in the clinical study described in Example 1 were assessed according to standard in vitro methods; CD19 CAR expression was assessed (FIG. 2); CAR T cell cytotoxicity was assessed (FIG. 3); CD3 T cell proliferation was assessed (FIG. 4); and CAR T cell proliferation was assessed (FIG. 4).

[2] = healthy subjects, oral administration; cited from earlier work
CAR T cells [3] = assay: In vitro CAR T cell proliferation with tacrolimus; format: cell-based; conditions: higher concentrations of tacrolimus; in the presence or absence of tumor
Procedure: as §1

In the case of C=CC[C@@H]1/C=C(\C)C[C@H](C)C[C@H](OC)[C@H]2O[C@@](O)(C(=O)C(=O)N3CCCC[C@H]3C(=O)O[C@H](/C(C)=C/[C@@H]3CC[C@@H](O)[C@H](OC)C3)[C@H](C)[C@@H](O)CC1=O)[C@H](C)C[C@@H]2OC [tacrolimus], the “CAR T cytotoxicity” value (CAR T cells [1]) is listed as “reduced CAR T cytotoxicity”, the “CAR T cytotoxicity” value (CAR T cells [1]; listed as Tacrolimus) is listed as “Reduces CAR T Cytotoxicity in a Dose-Dependent Manner” and the absolute bioavailability [2] is listed as 18±5%. The “CAR T cell proliferation” value (CAR T cells [3]) was “reduced CAR T cell proliferation”.
